Here are results for seven compounds from article PMC7424068, “Design, Synthesis, and Biological Evaluation of Novel Thiazolidinone-Containing Quinoxaline-1,4-di-N-oxides as Antimycobacterial and Antifungal Agents” (Frontiers in Chemistry, 2020).

≈ marks a conversion by molar mass, not a printed value. Where two headings read alike, the source gives them in different places.

One series concerns C. albicans (ATCC90028). The series can be described thus: Antifungal activity, broth microdilution. Type of series: cell-based, Candida albicans. The note with it: Candida albicans ATCC 90028, read-out: MIC. Here is the method: (§1) All synthesized compounds and the positive control drugs amphotericin B and ketoconazole were tested for their in vitro antifungal activity. Antifungal activity was evaluated against four fungi, C. albicans (ATCC90028), C. tropicalis (ATCC7349), A. fumigatus (3.5352), and C. neoformans (2.3201), by broth microdilution according to the protocols from the NCCLS (Jiang et al., [2014]). Briefly, all tested compounds were dissolved in DMSO, and the solutions were diluted with fresh broth medium. All of the fungi-seeded broth (1 × 10^5 colony-forming units [CFU]/mL) were prepared in RPMI 1640 medium and added into the serially diluted drug solution. The tubes were incubated at 28°C, and the MIC (μg/mL) was recorded 72–96 h post-incubation. Broth control (without fungi), growth controls (with fungi and without drug), solvent (DMSO) control, and drug control for both test drugs and standard drugs were set under identical conditions. The minimum drug concentration in the tubes in which no apparent growth of the organism was observed represented the MIC of the compounds.

A further series has as its system Mtb H37Rv (ATCC27294). The series can be described thus: Antimycobacterial activity, microplate Alamar blue assay (MABA). Type of series: cell-based, Mycobacterium tuberculosis. The note with it: for antimycobacterial activity (in words): Mtb strain H37Rv; for MIC: Mycobacterium tuberculosis, Mtb H37Rv.
Another series deals with VERO cell line. The series can be described thus: Cytotoxicity MTT assay. Type of series: cell-based. The note with it: Chlorocebus sabaeus, cytotoxicity in VERO cells, 72 h. Here is the method:
VERO cells (2 × 10^4 cells) were seeded into 96-well plates and incubated for 12 h. Serial dilutions of the compounds were mixed with the cell suspension in the plates. Both treated cells and blank and solvent controls were incubated for 72 h, followed by incubation with MTT (0.5 mg/mL) for another 4 h. The microplates were measured at 570 nm using a multimode reader (Infinite M200, Tecan). The percentage of viable cells was calculated as the mean with respect to the controls set to 100%. Triplicate wells were analyzed for each concentration. IC50 was defined as the concentration that reduced the viable cells by 50% compared to the untreated control cells. It was considered significant when the SI was more than 10.

For another series, the system named is C. neoformans (2.3201). The series is described as follows: Antifungal activity, broth microdilution. The note with it: Cryptococcus neoformans; C. neoformans 2.3201; read-out: MIC. Type of series: cell-based. Here is the method:
as §1

For the next series, the system named is A. fumigatus (3.5352). The series is described as follows: Antifungal activity, broth microdilution. Type of series: cell-based. The note with it: Aspergillus fumigatus; A. fumigatus 3.5352; read-out: MIC. Here is the method:
as §1

The subject of another series is C. tropicalis (ATCC7349). The series can be described thus: Antifungal activity, broth microdilution. Type of series: cell-based. The conditions noted are these: Candida tropicalis, C. tropicalis ATCC 7349, read-out: MIC. Here is the method:
as §1

Where [1] appears, read: repeated in Table 5 for the 3D-QSAR models, read-out: MIC.
Where [2] appears, read: experimental pMIC, Table 5, read-out: pMIC exp (converted).

Compound `O=C1CSC(c2c[n+]([O-])c3ccccc3[n+]2[O-])N1c1ccccc1` (stereo not drawn) [2a, 2-(3′-phenyl-4′(5H)-thiazolidinone)-quinoxaline-1,4-di-N-oxide] showed a melting point of 245 to 248 °C. Further, in the series with C. albicans (ATCC90028), the MIC came out at 16 µg/mL (≈ 47.1 µM). Besides, the “antimycobacterial activity (in words)” value in the series with Mtb H37Rv (ATCC27294) is “good antimycobacterial activity”. Also, the MIC in the series on Mtb H37Rv (ATCC27294) (MABA assay, read-out: MIC) amounted to 6.25 µg/mL. Besides, the MIC in the series with Mtb H37Rv (ATCC27294) (setting [1]) amounted to 6.25 µg/mL. The MIC in the series with Mtb H37Rv (ATCC27294) (setting [2]) was 18.5 µM. 144 µg/mL (≈ 423 µM) corresponded to half-maximal inhibition with VERO cell line (IC50). Also, the MIC in the series on C. neoformans (2.3201) was 16 µg/mL (≈ 47.1 µM). Besides, in the series on A. fumigatus (3.5352), the MIC amounted to 32 µg/mL (≈ 94.3 µM). Further, in the series with C. tropicalis (ATCC7349), the MIC is 8 µg/mL (≈ 23.6 µM).

`O=C1CSC(c2c[n+]([O-])c3ccccc3[n+]2[O-])N1c1ccc(F)cc1` (stereo not drawn) [2d, 2-(3′-P-fluorophenyl-4′(5H)-thiazolidinone)-quinoxaline-1,4-di-N-oxide] had a melting point of 240 to 242 °C. Besides, the MIC in the series on C. albicans (ATCC90028) was 16 µg/mL (≈ 44.8 µM). In addition, the “antimycobacterial activity (in words)” value with Mtb H37Rv (ATCC27294) is recorded as “good antimycobacterial activity”. Further, in the series with Mtb H37Rv (ATCC27294) (MABA assay, read-out: MIC), the MIC amounted to 3.13 µg/mL. In addition, the MIC in the series with Mtb H37Rv (ATCC27294) (setting [1]) amounted to 3.13 µg/mL. Moreover, the MIC in the series on Mtb H37Rv (ATCC27294) (setting [2]) is 8.77 µM. In the series on VERO cell line, this compound gave a half-inhibitory concentration (IC50) of 123 µg/mL (≈ 344 µM). Further, the MIC with C. neoformans (2.3201) worked out at 8 µg/mL (≈ 22.4 µM). Further, the MIC in the series with A. fumigatus (3.5352) came out at 32 µg/mL (≈ 89.5 µM). Further, the MIC with C. tropicalis (ATCC7349) turned out to be 8 µg/mL (≈ 22.4 µM).

With `O=C1CSC(c2c[n+]([O-])c3ccccc3[n+]2[O-])N1c1ccc(Cl)cc1` (stereo not drawn) [2e, 2-(3′-P-chlorophenyl-4′(5H)-thiazolidinone)-quinoxaline-1,4-di-N-oxide], the melting point lay in the range of 249 to 252 °C. Also, the MIC with C. albicans (ATCC90028) was found to be 8 µg/mL (≈ 21.4 µM). Also, in the series with Mtb H37Rv (ATCC27294), the “antimycobacterial activity (in words)” value is “good antimycobacterial activity”. In addition, the MIC in the series on Mtb H37Rv (ATCC27294) (MABA assay, read-out: MIC) is at most 3.13 µg/mL. Besides, the MIC in the series on Mtb H37Rv (ATCC27294) (setting [1]) was found to be 3.13 µg/mL. The MIC in the series with Mtb H37Rv (ATCC27294) (setting [2]) was 8.39 µM. In the series on VERO cell line, this compound showed an IC50 of 116 µg/mL (≈ 310 µM). Besides, the MIC in the series on C. neoformans (2.3201) was found to be 16 µg/mL (≈ 42.8 µM). Also, the MIC in the series on A. fumigatus (3.5352) worked out at 32 µg/mL (≈ 85.6 µM). Further, the MIC in the series on C. tropicalis (ATCC7349) was 8 µg/mL (≈ 21.4 µM).

`Cc1ccc2c(c1)[n+]([O-])c(C1SCC(=O)N1c1ccc(F)cc1)c[n+]2[O-]` (stereo not drawn) [2j, 7-CH3-2-(3′-P-fluorophenyl-4′(5H)-thiazolidinone)-quinoxaline-1,4-di-N-oxide]: the melting point was 243 to 245 °C. Also, the MIC in the series with C. albicans (ATCC90028) turned out to be 16 µg/mL (≈ 43.1 µM). For the same compound, the “antimycobacterial activity (in words)” value in the series on Mtb H37Rv (ATCC27294) is on record as “good antimycobacterial activity”. In the series with Mtb H37Rv (ATCC27294) (MABA assay, read-out: MIC), the MIC was found to be 6.25 µg/mL. In addition, the MIC in the series on Mtb H37Rv (ATCC27294) (setting [1]) was found to be 6.25 µg/mL. For the same compound, the MIC in the series with Mtb H37Rv (ATCC27294) (setting [2]) is 16.9 µM. For the same compound, 114 µg/mL (≈ 306 µM) corresponded to half-maximal inhibition in the series with VERO cell line (IC50). Besides, the MIC in the series on C. neoformans (2.3201) came to 16 µg/mL (≈ 43.1 µM). Moreover, the MIC with A. fumigatus (3.5352) turned out to be 32 µg/mL (≈ 86.2 µM). The MIC with C. tropicalis (ATCC7349) was 8 µg/mL (≈ 21.5 µM).

The compound `Cc1ccc2c(c1)[n+]([O-])c(C1SCC(=O)N1c1ccc(Cl)cc1)c[n+]2[O-]` (stereo not drawn) [2k, 7-CH3-2-(3′-P-chlorophenyl-4′(5H)-thiazolidinone)-quinoxaline-1,4-di-N-oxide] gave a melting point of 244 to 248 °C. Also, in the series with C. albicans (ATCC90028), the MIC is 32 µg/mL (≈ 82.5 µM). In addition, the “antimycobacterial activity (in words)” value in the series with Mtb H37Rv (ATCC27294) is listed as “good antimycobacterial activity”. Also, the MIC in the series with Mtb H37Rv (ATCC27294) (MABA assay, read-out: MIC) was at most 3.13 µg/mL. In the series with Mtb H37Rv (ATCC27294) (setting [1]), the MIC came out at 3.13 µg/mL. In addition, the MIC in the series with Mtb H37Rv (ATCC27294) (setting [2]) was 8.09 µM. In addition, in the series with VERO cell line, the IC50 stood at 102 µg/mL (≈ 264 µM). The MIC with C. neoformans (2.3201) came out at 32 µg/mL (≈ 82.5 µM). For the same compound, the MIC in the series on A. fumigatus (3.5352) stood at 32 µg/mL (≈ 82.5 µM). Besides, in the series on C. tropicalis (ATCC7349), the MIC came out at 16 µg/mL (≈ 41.3 µM).

Take `COc1ccc2c(c1)[n+]([O-])c(C1SCC(=O)N1c1ccccc1)c[n+]2[O-]` (stereo not drawn) [2l, 7-OMe-2-(3′-phenyl-4′(5H)-thiazolidinone)-quinoxaline-1,4-di-N-oxide]: the melting point is 254 to 258 °C. Also, the MIC in the series with C. albicans (ATCC90028) came out at 64 µg/mL (≈ 173 µM). Besides, the MIC in the series with Mtb H37Rv (ATCC27294) (MABA assay, read-out: MIC) was found to be 100 µg/mL. In addition, the MIC with Mtb H37Rv (ATCC27294) (setting [1]) came out at 100 µg/mL. For the same compound, the MIC with Mtb H37Rv (ATCC27294) (setting [2]) was 271 µM. For the same compound, the MIC in the series with C. neoformans (2.3201) is over 64 µg/mL. For the same compound, the MIC with A. fumigatus (3.5352) was over 64 µg/mL. Besides, in the series with C. tropicalis (ATCC7349), the MIC was found to be 32 µg/mL (≈ 86.6 µM).

`COc1ccc2c(c1)[n+]([O-])c(C1SCC(=O)N1c1ccc(C)cc1)c[n+]2[O-]` (stereo not drawn) [2m, 7-OMe-2-(3′-P-methylphenyl-4′(5H)-thiazolidinone)-quinoxaline-1,4-di-N-oxide]: the melting point was in the range of 257 to 259 °C. Besides, the MIC in the series with C. albicans (ATCC90028) was over 64 µg/mL. Further, the MIC in the series on Mtb H37Rv (ATCC27294) (MABA assay, read-out: MIC) was 100 µg/mL. Also, in the series on Mtb H37Rv (ATCC27294) (setting [1]), the MIC was determined as 100 µg/mL. The MIC in the series on Mtb H37Rv (ATCC27294) (setting [2]) is 261 µM. Moreover, in the series with C. neoformans (2.3201), the MIC is over 64 µg/mL. Further, the MIC in the series on A. fumigatus (3.5352) was over 64 µg/mL. In addition, the MIC in the series with C. tropicalis (ATCC7349) is 64 µg/mL (≈ 167 µM).
